A word on the ED50: it is the dose that gives a 50% effect, or the effect in half of the subjects.

One data set has as its system epinephrine. Nature of the data set: Activity for antagonizing epinephrine in mouse. It is filed as in vivo, mouse (male, ddy strain). Particulars: read-out: ED50 value, dose allowing half the animals to survive. As to the method:
(C) Activity for antagonizing epinephrine in mouse
Individual male mice of ddy strain having 17 to 20 g of body weight were used. The mice were abstained from eating for 24 hours. One test group consist of 10 mice. A compound to be tested was administered orally. One hour after the administration, 40 mg/kg of epinephrine was intraperitonerally administered. […] All of 10 mice administered physiological saline solution as the reference group were dead within a few minutes after the administration of epinephrine. (Cf. Loew, E. R. and Micetich, A., J. Pharmacol. Exp. Ther., 93, 434-443 (1948)).

In data set [1] the test system is jumping behavior induced by Methamphetamine and L-DOPA. Nature of the data set: Activity for inhibiting jumping behavior in mouse induced by Methamphetamine and L-DOPA. It is filed as in vivo, mouse (male, ddy-strain). As to conditions: read-out: ED50 value, inhibition of jumping behavior. As to the method: (B) Activity for inhibiting jumping behavior in mouse induced by Methamphetamine and L-DOPA
Individual male mice of ddy-strain having a body weight of 17 to 25 g were used. The mice were not fed for 24 hours. One test group consisted of 6 mice. A compound to be tested was administered orally. 40Minutes after the administration 4 mg/kg of Methamphetamine d-N-α-dimethylphenthylamine was intraperitonerally administered, further 15 minutes after the administration of Methamphetamine, 400 mg/kg of L-DOPA was intraperitonerally administered. 60 Minutes after the administration of L-DOPA, (3-(3,4-dihydroxyphenyl)alanine) the mouse was placed in a glass beaker of 2 liters capacity, and the number of jumping of the mouse was recorded. The activity for inhibiting jumping behavior of the test compound was determined as positive in case of number of jumping performed by the administered mouse counted 10 or less. While, the activity for inhibiting jumping behabior of the test compound was determined as negative in case the number of jumping performed by the administered mouse recorded over 10. The effective dosage (ED50 value: mg/kg) of the test compound which gives 3 mice were positive over 6 mice of one test group was calculated. The number of jumping performed by the mouse being administered with physiological saline solution as the reference was 150 to 200 per hour. (Cf. H. Lal, F. C. Colpaert, P. Laduron: European J. Pharmacol., 30, 113-116 (1975)).

The next data set relates to male rats. As to conditions: rat, in vivo, po. As to the method: Each of the following compound of the general formula in the present invention was administered orally to male rats to determine the acute toxicity (LD50 mg/kg).
Another data set has as its system Halothane anesthesia. In words: Halothane anesthesia increasing activity. Particulars: 16 mg/kg oral, 1 hour before 4% Halothane for 3 minutes; righting reflex. It is filed as in vivo, mouse (male, ddy-strain). As to the method: Male mice of ddy-strain a having about 20 g body weight were used. One test group consists of 10 mice. An aqueous Gummi Arabicum suspension of test compound (80 mg of a compound to be tested and 1 g of Gummi Arabicum/100 ml of physiological NaCl solution) was administered orally to each mouse at the dosage of 16 mg of test compound/kg body. One hour after the administration, each mouse was placed in gas respiration chamber (13×13×24 cm) and oxygen gas containing 4% of Halothane (2-brome-2-chloro-1,1,1-trifluoroethane) was flown into the chamber at the velocity of 2/min for 3 minutes. A mouse anaesthetized was taken out from the chamber and the time between the introduction of anesthesia to waking was measured by righting reflex as the index. To mice of control group, 1% Gummi Arabicum aqueous physiological solution was orally administered at the dosage of 0.1 ml/kg body.

In the next data set the test system is palpebral ptosis. Nature of the data set: Palpebral ptosis test in mouse. It is filed as in vivo, mouse (male, ddy-strain). Particulars: 64 mg/kg oral, 1 hour; score 0 (wide open eyes) to 8 (eyes completely closed); mean of 10 mice. As to the method: (D) Activity of palpebral ptosis test in mouse
Individual male mice of ddy-strain having 18 to 20 g of body weight were used. The mice were abstained from eating for 24 hours. One test group consists of 10 mice. […] One hour after the administration, the state of palpebral ptosis of the mouse were observed and evaluated on the basis of the following score system. The mean value was calculated from the scores of 10 mice.
Score Degree of palpebral ptosis
8 Eyes completely closed.

[2] abbreviates: oral, 1 hour before epinephrine 40 mg/kg i.p., survival at 24 hours.
[3] abbreviates: oral, Methamphetamine 4 mg/kg i.p. and L-DOPA 400 mg/kg i.p., positive = 10 or fewer jumps.

Each structure is given as a SMILES string. Where a name gives a salt, the structure may show the parent alone. Read-outs that look alike come from different tables or passages of the source.

Take `CCOc1ccccc1N1CCN(CCC=Cc2ccc3c(c2)CCC(=O)N3)CC1` [Compound 12, 6-{4-[4-(2-Ethoxyphenyl)-1-piperazinyl]-1-butenyl}-3,4-dihydrocarbostyril]: the 50% effective dose (ED50) was determined as 0.005 mg/kg with epinephrine (setting [2]) and 0.056 mg/kg in data set [1] (setting [3]).

Consider `Cc1cccc(N2CCN(CC=Cc3ccc4c(c3)CCC(=O)N4)CC2)c1` [Compound 10, 6-{3-[4-(3-Methylphenyl)-1-piperazinyl]-1-propenyl}-3,4-dihydrocarbostyril], for which the ED50 in data set [1] (setting [3]) is 6.02 mg/kg. The “Acute toxicity (LD50)” value in the data set on male rats was found to be 500 mg/kg.

Consider `CCC(C(=O)c1ccc2[nH]c(=O)ccc2c1)N1CCN(c2cccc(Cl)c2)CC1` (stereo not drawn) [Compound 4, 6-{1-Oxo-2-[4-(3-chlorophenyl)-1-piperazinyl]butyl}-carbostyril], for which the “Time (minutes) between introduction of anesthesia to waking” value (“Time (minutes) between introduction” below) in the data set with Halothane anesthesia came out at 9.7 min. For the same compound, the ED50 in data set [1] (po) stood at 4.05 mg/kg. Besides, the “Score obtained (Mean value), degree of palpebral ptosis” value with palpebral ptosis is on record as 2.33.

`O=C1CCc2cc(CCCN3CCN(c4ccccc4)CC3)ccc2N1` [Compound 18, 6-[3-(4-Phenyl-1-piperazinyl)propyl]-3,4-dihydrocarbostyril]: the values for the ED50 (in the data set on epinephrine (setting [2]); in data set [1] (setting [3])) were 0.21 mg/kg and 0.34 mg/kg, respectively. The “Acute toxicity (LD50)” value with male rats is on record as 500 mg/kg.

With `O=C1CCc2cc(C=CCCN3CCN(c4ccccc4)CC3)ccc2N1` [Compound 11, 6-[4-(4-Phenyl-1-piperazinyl)-1-butenyl]-3,4-dihydrocarbostyril], the ED50 was 4 to 8 mg/kg in the data set with epinephrine (setting [2]) and 1.6 mg/kg in data set [1] (setting [3]). In the data set on male rats, the “Acute toxicity (LD50)” value turned out to be 500 mg/kg.

Consider `CCOc1ccccc1N1CCN(CCCCc2ccc3c(c2)CCC(=O)N3)CC1` [Compound 15, 6-{4-[4-(2-Ethoxyphenyl)-1-piperazinyl]-butyl}-3,4-dihydrocarbostyril], for which the figures for the ED50 (in the data set with epinephrine (setting [2]); in data set [1] (setting [3])) were 0.71 mg/kg and 0.39 mg/kg, respectively. The “Acute toxicity (LD50)” value in the data set with male rats worked out at 500 mg/kg.

Consider `O=c1ccc2cc(CCCCN3CCN(c4ccccc4)CC3)ccc2[nH]1` [Compound 30, 6-[4-(4-Phenyl-1-piperazinyl)butyl]-carbostyril], for which the ED50 in data set [1] (setting [3]) was found to be 0.56 mg/kg. Further, the “Acute toxicity (LD50)” value with male rats came out at 500 mg/kg.

With `O=C1CCc2cc(C(=O)CCCN3CC=C(c4ccc(Cl)cc4)CC3)ccc2N1` [Compound 25, 6-{1-Oxo-4-[4-(4-chlorophenyl)-1,2,5,6-tetrahydropyridyl]butyl}-3,4-dihydrocarbostiryl], the ED50 in data set [1] (po) amounted to 9.56 mg/kg.

For the compound `CCOc1ccccc1N1CCN(CCCc2ccc3c(c2)CCC(=O)N3)CC1` [Compound 16, 6-{3-[4-(2-Ethoxyphenyl)-1-piperazinyl]-propyl}-3,4-dihydrocarbostyril], the ED50 in the data set on epinephrine (setting [2]) came to 0.02 mg/kg; in data set [1] (setting [3]) it was 0.24 mg/kg. The “Acute toxicity (LD50)” value with male rats is reported as 500 mg/kg.

Take `CCOc1ccccc1N1CCN(CC=Cc2ccc3c(c2)CCC(=O)N3)CC1` [Compound 9, 6-{3-[4-(2-Ethoxyphenyl)-1-piperazinyl]-1-propenyl}-3,4-dihydrocarbostyril]: the 50% effective dose (ED50) worked out at 0.005 mg/kg in the data set with epinephrine (setting [2]) and 0.12 mg/kg in data set [1] (setting [3]). For the same compound, in the data set with male rats, the “Acute toxicity (LD50)” value was 500 mg/kg.

For `O=C1CCc2cc(C(=O)CCN3CCN(c4cccc(Cl)c4)CC3)ccc2N1` [Compound 7, 6-{1-Oxo-3-[4-(3-chlorophenyl)-1-piperazinyl]-propyl}-3,4-dihydrocarbostyril.monohydrochloride], the median effective dose (ED50) in data set [1] (setting [3]) came out at 1.34 mg/kg. For the same compound, the “Score obtained (Mean value), degree of palpebral ptosis” value in the data set on palpebral ptosis is 1.33. Also, the “Acute toxicity (LD50)” value with male rats is recorded as 500 mg/kg.

Take `O=C1CCc2cc(C(O)CCCN3CCN(c4cccc(Cl)c4)CC3)ccc2N1` (stereo not drawn) [Compound 5, 6-{1-Hydroxy-4-[4-(3-chlorophenyl)-1-piperazinyl]butyl}-3,4-dihydrocarbostyril]: the “Time (minutes) between introduction” value with Halothane anesthesia is 13.0 min. Further, the ED50 in data set [1] (setting [3]) was found to be 1.95 mg/kg. In addition, in the data set on male rats, the “Acute toxicity (LD50)” value worked out at 500 mg/kg.

Consider `O=C1CCc2cc(C=CCN3CCN(c4cccc(Cl)c4)CC3)ccc2N1` [Compound 8, 6-{3-[4-(3-Chlorophenyl)-1-piperazinyl]-1-propenyl}-3,4-dihydrocarbostyril], for which, in data set [1] (setting [3]), the ED50 worked out at 1.02 mg/kg. In addition, the “Acute toxicity (LD50)” value in the data set with male rats came out at 500 mg/kg.

As to `COc1ccccc1N1CCN(CCCc2ccc3c(c2)CCC(=O)N3)CC1` [Compound 17, 6-{3-[4-(2-Methoxyphenyl)-1-piperazinyl] -propyl}-3,4-dihydrocarbostyril], the ED50 in the data set with epinephrine (setting [2]) was 0.29 mg/kg. Besides, the “Acute toxicity (LD50)” value in the data set on male rats is given as 500 mg/kg.

Regarding `COc1ccccc1N1CCN(CC=Cc2ccc3c(c2)CCC(=O)N3)CC1` [Compound 19], the ED50 in the data set with epinephrine (setting [2]) is 0.1 mg/kg; in data set [1] (setting [3]), 0.79 mg/kg. Also, the “Acute toxicity (LD50)” value in the data set with male rats was determined as 500 mg/kg.

As to `CCC(C(O)c1ccc2[nH]c(=O)ccc2c1)N1CCN(c2cccc(Cl)c2)CC1` (stereo not drawn) [Compound 32, 6-{1-Hydroxy-2-[4-(3-chlorophenyl)-1-piperazinyl]butyl}carbostyril], in data set [1] (setting [3]), the ED50 stood at 4.86 mg/kg.

On to `COc1ccccc1C1CCN(CCCc2ccc3c(c2)CCC(=O)N3)CC1.O=C(O)C(=O)O` [Compound 29, 6-{3-[4-(2-Methoxyphenyl)-1-piperidyl]-propyl}-3,4-dihydrocarbostyril monooxalate], for which the ED50 in data set [1] (setting [3]) came out at 2.01 mg/kg.

For the compound `CN(C)CCCN1c2ccccc2Sc2ccc(Cl)cc21` [Chlorpromazine, 2-chloro-N,N-dimethyl-10H-phenothiazine-10-propanamine, reference compound], the 50% effective dose (ED50) in the data set with epinephrine (po, 24 h) was 10.6 mg/kg; in data set [1] (po), 7.6 mg/kg.

For `COc1ccccc1C1=CCN(CC=Cc2ccc3c(c2)CCC(=O)N3)CC1` [Compound 27, 6-{3-[4-(2-Methoxyphenyl)-1,2,5,6-tetrahydropyridyl]-1-propenyl}-3,4-dihydrocarbostyril monooxalate], in data set [1] (po), the ED50 stood at 1.25 mg/kg.

Take `CCOc1ccccc1N1CCN(CCC=Cc2ccc3[nH]c(=O)ccc3c2)CC1` [Compound 31, 6-{4-[4-(2-Ethoxyphenyl)-1-piperazinyl]-1-butenyl}carbostyril]: the ED50 in data set [1] (setting [3]) was found to be 0.14 mg/kg.

On to `O=C1CCc2cc(CCCCN3CCN(c4ccccc4Cl)CC3)ccc2N1` [Compound 14, 6-{4-[4-(2-Chlorophenyl)-1-piperazinyl]-butyl}-3,4-dihydrocarbostyril], for which the ED50 in data set [1] (setting [3]) came out at 3.23 mg/kg.

`Cc1ccc(C2=CCN(CCC(=O)c3ccc4c(c3)CCC(=O)N4)CC2)cc1` [Compound 26, 6-{1-Oxo-3-[4-(4-methylphenyl)-1,2,5,6-tetrahydropyridyl]propyl}-3,4-dihydrocarbostiryl]: in data set [1] (po), the 50% effective dose (ED50) amounted to 10.3 mg/kg.

On to `O=C1CCc2cc(C(=O)CCCN3CC=C(c4ccccc4)CC3)ccc2N1` [Compound 28, 6-[1-Oxo-4-(4-phenyl-1,2,5,6-tetrahydropyridyl)butyl]-3,4-dihydrocarbostyril], for which the ED50 in data set [1] (po) is 8.89 mg/kg.

In the case of `O=C1CCc2cc(C=CCN3CCN(c4ccc(Cl)cc4)CC3)ccc2N1` [Compound 13, 6-{3-[4-(4-chlorophenyl)-1-piperazinyl]-1-propenyl}-3,4-dihydrocarbostyril], the ED50 in data set [1] (setting [3]) was found to be 4.16 mg/kg. The “Acute toxicity (LD50)” value with male rats turned out to be 500 mg/kg.

Regarding `Cc1cccc(N2CCN(CCC(O)c3ccc4c(c3)CCC(=O)N4)CC2)c1C` (stereo not drawn) [Compound 6, 6-{1-Hydroxy-3-[4-(2,3-dimethylphenyl)-1-piperazinyl]-propyl}-3,4-dihydrocarbostryril], in the data set on Halothane anesthesia, the “Time (minutes) between introduction” value amounted to 8.2 min. Moreover, the “Acute toxicity (LD50)” value in the data set with male rats was 500 mg/kg.

The record behind these values is patent US4619932A, “Novel carbostyril derivatives, process for producing thereof and pharmaceutical composition containing the same” (Otsuka Pharmaceutical Co., Ltd., priority 1980, dated 1986).
